In PubChem BioAssay AID330 (DTP/NCI, 2004):
Several values for one entry are separate records, joined by “and”; a condition that tells them apart may be missing. Identical values can stand only once. Toxic doses and inconclusive results are not listed.

Tested on: P388 leukemia ip, CD2F1 mice, survival T/C
Assay: NCI In Vivo Anticancer Drug Screen. Data for tumor model P388 Leukemia (intraperitoneal) in CD2F1 (CDF1) mice
Conditions: endpoint: median survival time, higher = longer survival
Outline: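 Mice carrying the transplanted tumor received test compound or vehicle. Survival was recorded in each group, and the value is the treated-group measurement divided by that of the vehicle-treated control group.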

[1] = dose: 25.0 mg/kg/injection, schedule: Q01DX009 (ip), vehicle: water
[2] = dose: 50.0 mg/kg/injection, schedule: Q01DX009 (ip), vehicle: water
[3] = dose: 50.0 mg/kg/injection, schedule: Q01DX009 (ip), vehicle: saline with Tween-80
[4] = dose: 50.0 mg/kg/injection, schedule: Q01DX009 (ip), vehicle: saline
[5] = dose: 100.0 mg/kg/injection, schedule: Q01DX009 (ip), vehicle: saline with Tween-80
[6] = dose: 400.0 mg/kg/injection, schedule: Q01DX009 (ip), vehicle: saline with Tween-80
[7] = dose: 12.5 mg/kg/injection, schedule: Q01DX009 (ip), vehicle: saline with Tween-80
[8] = dose: 25.0 mg/kg/injection, schedule: Q01DX009 (ip), vehicle: saline with Tween-80
[9] = dose: 200.0 mg/kg/injection, schedule: Q01DX009 (ip), vehicle: saline with Tween-80
[10] = dose: 100.0 mg/kg/injection, schedule: Q01DX005 (ip), vehicle: saline with Tween-80
[11] = dose: 100.0 mg/kg/injection, schedule: Q01DX009 (ip), vehicle: saline
[12] = dose: 200.0 mg/kg/injection, schedule: Q01DX009 (ip), vehicle: saline
[13] = dose: 12.5 mg/kg/injection, schedule: Q04DX003 (ip), vehicle: saline
[14] = dose: 50.0 mg/kg/injection, schedule: Q04DX003 (ip), vehicle: saline

C[n+]1cc2ccccc2c2ccccc21
T/C (dose: 3.13 mg/kg/injection, schedule: Q01DX009 (ip), vehicle: saline): 108 % of control
T/C (dose: 6.25 mg/kg/injection, schedule: Q01DX009 (ip), vehicle: saline): 117 % of control
T/C (dose: 12.5 mg/kg/injection, schedule: Q01DX005 (ip), vehicle: saline): 100 % of control
T/C (dose: 12.5 mg/kg/injection, schedule: Q01DX009 (ip), vehicle: saline): 120 % of control
T/C (dose: 25.0 mg/kg/injection, schedule: Q01DX005 (ip), vehicle: saline): 110 % of control
T/C [1]: 122 % of control
T/C (dose: 50.0 mg/kg/injection, schedule: Q01DX005 (ip), vehicle: saline): 101 % of control
T/C [2]: 113 % of control

CCOC(=O)OCC1OC(OC(C)=O)C(OC(C)=O)C(OC(=O)OCC)C1OC(=O)OCC (configuration not stated)
T/C (dose: 12.5 mg/kg/injection, schedule: Q01DX009 (ip), vehicle: water): 95 % of control
T/C [1]: 99 % of control
T/C [2]: 91 % of control
T/C (dose: 100.0 mg/kg/injection, schedule: Q01DX009 (ip), vehicle: water): 99 % of control
T/C (dose: 200.0 mg/kg/injection, schedule: Q01DX009 (ip), vehicle: water): 90 % of control

NC(=O)SCC(N)C(=O)O (configuration not stated)
T/C [3]: 111 % of control
T/C [4]: 108 % of control
T/C (dose: 50.0 mg/kg/injection, schedule: Q01DX009 (ip), vehicle: suspension in saline): 108 % of control
T/C [5]: 114 % of control and 119 % of control
T/C (dose: 100.0 mg/kg/injection, schedule: Q01DX009 (ip), vehicle: suspension in saline): 121 % of control
T/C [6]: 101 % of control
T/C (dose: 400.0 mg/kg/injection, schedule: Q01DX009 (ip), vehicle: saline): 98 % of control and 93 % of control

CC(=O)OC1C(=O)OCC1C(=O)N1Cc2cc3ccccc3nc2C1 (configuration not stated)
T/C (dose: 100.0 mg/kg/injection, schedule: Q01DX001 (ip), vehicle: saline with Tween-80): 104 % of control
T/C (dose: 200.0 mg/kg/injection, schedule: Q01DX001 (ip), vehicle: saline with Tween-80): 101 % of control
T/C (dose: 400.0 mg/kg/injection, schedule: Q01DX001 (ip), vehicle: saline with Tween-80): 105 % of control

Cn1cccc1[N+](=O)[O-]
T/C [7]: 100 % of control
T/C [8]: 101 % of control
T/C [3]: 100 % of control and 104 % of control
T/C [5]: 101 % of control
T/C [9]: 108 % of control

CC(=O)C[n+]1ccccc1Sc1ccc(Cl)cc1
T/C (dose: 50.0 mg/kg/injection, schedule: Q01DX005 (ip), vehicle: saline with Tween-80): 111 % of control
T/C [10]: 111 % of control

CC(=O)C1CCC(=O)N1C(C)=O (configuration not stated)
T/C [4]: 100 % of control
T/C [11]: 106 % of control
T/C [12]: 114 % of control

O=[N+]([O-])c1ccc(S/N=C\c2ccccc2)c([N+](=O)[O-])c1
T/C [3]: 97 % of control

Cc1cc(S(=O)(=O)[O-])ccc1-n1nc(C)[c-](N=Nc2cc(S(=O)(=O)[O-])ccc2C(=O)[O-])c1=O.[Cr+3].[Na+].[OH-] (configuration not stated)
T/C [4]: 104 % of control
T/C [11]: 104 % of control
T/C [12]: 108 % of control

Cc1cc(Cl)ccc1N=Cc1ccc(C=Nc2ccc(Cl)cc2C)cc1
T/C (dose: 12.5 mg/kg/injection, schedule: Q01DX009 (ip), vehicle: Klucel (hydroxypropylcellulose) (HPC)): 94 % of control
T/C (dose: 25.0 mg/kg/injection, schedule: Q01DX009 (ip), vehicle: Klucel (hydroxypropylcellulose) (HPC)): 95 % of control
T/C (dose: 50.0 mg/kg/injection, schedule: Q01DX009 (ip), vehicle: Klucel (hydroxypropylcellulose) (HPC)): 99 % of control

Fc1cccc2c(C#Cc3ccccc3)c3ccccc3c(C#Cc3ccccc3)c12
T/C (dose: 1.5 mg/kg/injection, schedule: Q01DX005 (ip), vehicle: saline with Tween-80): 100 % of control
T/C (dose: 3.0 mg/kg/injection, schedule: Q01DX005 (ip), vehicle: saline with Tween-80): 100 % of control
T/C (dose: 6.0 mg/kg/injection, schedule: Q01DX005 (ip), vehicle: saline with Tween-80): 97 % of control
T/C (dose: 25.0 mg/kg/injection, schedule: Q01DX005 (ip), vehicle: saline with Tween-80): 92 % of control
T/C [10]: 94 % of control
T/C (dose: 200.0 mg/kg/injection, schedule: Q01DX005 (ip), vehicle: saline with Tween-80): 87 % of control

Clc1ccc(N=C(c2ccncc2)c2cc(Cl)ccc2Cl)cc1
T/C [3]: 109 % of control
T/C [5]: 92 % of control

CCCCNC(=O)CCC
T/C [3]: 88 % of control
T/C [5]: 94 % of control
T/C [9]: 95 % of control
T/C [6]: 97 % of control

COc1c(COC(C)=O)ccc2c1C(=O)c1ccccc1C2=O
T/C (dose: 100.0 mg/kg/injection, schedule: Q04DX002 (ip), vehicle: Klucel (hydroxypropylcellulose) (HPC)): 108 % of control
T/C (dose: 200.0 mg/kg/injection, schedule: Q04DX002 (ip), vehicle: Klucel (hydroxypropylcellulose) (HPC)): 92 % of control
T/C (dose: 400.0 mg/kg/injection, schedule: Q04DX002 (ip), vehicle: Klucel (hydroxypropylcellulose) (HPC)): 93 % of control

Nc1ccccc1N1CCNCC1
T/C [13]: 100 % of control
T/C (dose: 25.0 mg/kg/injection, schedule: Q04DX003 (ip), vehicle: saline): 100 % of control
T/C [14]: 98 % of control and 101 % of control

Cc1cc(Cl)ccc1N=Cc1ccc(OCc2ccccc2)cc1
T/C [3]: 92 % of control
T/C [5]: 90 % of control
T/C [9]: 88 % of control

Cc1cc(C2=NCC(C)S2)ccc1OCCSCCOc1ccc(C2=NCC(C)S2)cc1C (configuration not stated)
T/C [7]: 92 % of control
T/C [8]: 92 % of control

CN(C)CCCNCC#CCNCCCN(C)C
T/C [4]: 100 % of control
T/C [11]: 105 % of control
T/C [12]: 105 % of control

NC(CC(=O)CCl)C(=O)O (configuration not stated)
T/C (dose: 5.0 mg/kg/injection, schedule: Q01DX009 (ip), vehicle: saline with Tween-80): 154 % of control
T/C (dose: 6.25 mg/kg/injection, schedule: Q04DX003 (ip), vehicle: saline): 150 % of control
T/C (dose: 10.0 mg/kg/injection, schedule: Q01DX009 (ip), vehicle: saline with Tween-80): 168 % of control
T/C [13]: 166 % of control
T/C (dose: 20.0 mg/kg/injection, schedule: Q01DX009 (ip), vehicle: saline with Tween-80): 159 % of control
T/C [14]: 176 % of control

CNC1CCCCC1[N+](C)(C)C (configuration not stated)
T/C (dose: 5.0 mg/kg/injection, schedule: Q01DX009 (ip), vehicle: saline sonified): 95 % of control
T/C (dose: 10.0 mg/kg/injection, schedule: Q01DX009 (ip), vehicle: saline sonified): 100 % of control
T/C (dose: 20.0 mg/kg/injection, schedule: Q01DX009 (ip), vehicle: saline sonified): 100 % of control

Cc1cc[n+](C)c(Cc2ccccc2)c1C
T/C (dose: 12.5 mg/kg/injection, schedule: Q01DX005 (ip), vehicle: Klucel (hydroxypropylcellulose) (HPC)): 97 % of control
T/C (dose: 25.0 mg/kg/injection, schedule: Q01DX005 (ip), vehicle: Klucel (hydroxypropylcellulose) (HPC)): 100 % of control
T/C (dose: 50.0 mg/kg/injection, schedule: Q01DX005 (ip), vehicle: Klucel (hydroxypropylcellulose) (HPC)): 112 % of control

CCOC(=O)c1cc(OCC)c(OCC)c(OCC)c1[N+](=O)[O-]
T/C (dose: 50.0 mg/kg/injection, schedule: Q01DX009 (ip), vehicle: saline + Tween-80 + alcohol): 98 % of control
T/C (dose: 100.0 mg/kg/injection, schedule: Q01DX009 (ip), vehicle: saline + Tween-80 + alcohol): 100 % of control
T/C (dose: 200.0 mg/kg/injection, schedule: Q01DX009 (ip), vehicle: saline + Tween-80 + alcohol): 100 % of control

CCOC(=O)c1cnc(NCCCCCCCCNc2ncc(C(=O)OCC)c(=O)[nH]2)[nH]c1=O
T/C [4]: 103 % of control
T/C [11]: 102 % of control
T/C [12]: 90 % of control and 97 % of control

[BH]n1cccn1.[CH3][Sn]([CH3])[N]=C=S
T/C (dose: 100.0 mg/kg/injection, schedule: Q04DX003 (ip), vehicle: saline): 117 % of control
T/C (dose: 200.0 mg/kg/injection, schedule: Q04DX003 (ip), vehicle: saline): 117 % of control

O=C(CCCl)Nc1ccc(CCC(=O)c2ccccc2NC(=O)CCCl)cc1
T/C (dose: 60.0 mg/kg/injection, schedule: Q01DX005 (ip), vehicle: saline with Tween-80): 100 % of control
T/C (dose: 120.0 mg/kg/injection, schedule: Q01DX005 (ip), vehicle: saline with Tween-80): 90 % of control
T/C (dose: 240.0 mg/kg/injection, schedule: Q01DX005 (ip), vehicle: saline with Tween-80): 92 % of control

C=C(C)C1CC(=O)C2(C)OC2C1 (configuration not stated)
T/C (dose: 100.0 mg/kg/injection, schedule: Q04DX002 (ip), vehicle: saline): 101 % of control
T/C (dose: 200.0 mg/kg/injection, schedule: Q04DX002 (ip), vehicle: saline): 100 % of control
T/C (dose: 400.0 mg/kg/injection, schedule: Q04DX002 (ip), vehicle: saline): 97 % of control
